Results: PMC4344250, “Characterization of the Major Light-Harvesting Complexes (LHCBM) of the Green Alga Chlamydomonas reinhardtii” (PLoS ONE, 2015)
Each block holds one compound with its values, some of them ahead of it.

What was measured:
LHCBM1 [1] = target: T1, LHCBM1 (Chlamydomonas reinhardtii, UniProt Q93VE0); test: in vitro reconstitution, Ni-affinity and sucrose gradient, HPLC of bound pigments; format: binding; details: C. reinhardtii pigment mix, measured only as Neo+loro sum
T1 construct: gene LhcII-4
T1 sequence (Q93VE0 entry or part of it): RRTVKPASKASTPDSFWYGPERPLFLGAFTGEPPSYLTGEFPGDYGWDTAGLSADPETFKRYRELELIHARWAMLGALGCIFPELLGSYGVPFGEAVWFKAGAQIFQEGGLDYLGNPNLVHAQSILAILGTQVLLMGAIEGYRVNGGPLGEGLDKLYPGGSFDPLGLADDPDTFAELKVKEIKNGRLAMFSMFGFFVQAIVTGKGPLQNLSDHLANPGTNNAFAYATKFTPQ

LHCBM9 [2] = target: T2, LHCBM9 (Chlamydomonas reinhardtii, UniProt Q8S3T9); test: as above; format: binding; details: C. reinhardtii pigment mix; measured only as Neo+loro sum
T2 sequence (Q8S3T9 entry or part of it): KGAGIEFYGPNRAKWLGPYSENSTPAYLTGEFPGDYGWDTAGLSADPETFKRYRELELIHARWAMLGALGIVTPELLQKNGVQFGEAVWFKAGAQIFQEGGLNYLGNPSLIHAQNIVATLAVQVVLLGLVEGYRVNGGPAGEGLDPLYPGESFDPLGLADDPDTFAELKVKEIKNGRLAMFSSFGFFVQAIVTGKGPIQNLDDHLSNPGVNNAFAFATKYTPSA

LHCBM9 [3] = target: T2, LHCBM9; test: as above; format: binding; details: C. reinhardtii pigment mix, Chl a/b 2.5; stoichiometry, not an affinity
Source text: in vitro reconstitution, Ni-affinity and sucrose gradient, HPLC of bound pigments on LHCBM9

LHCBM1 [4] = target: T1, LHCBM1; test: as above; format: binding; details: C. reinhardtii pigment mix, Chl a/b 2.5, stoichiometry, not an affinity
Source text: in vitro reconstitution, Ni-affinity and sucrose gradient, HPLC of bound pigments on LHCBM1

LHCBM5 = target: T3, LHCBM5 (Chlamydomonas reinhardtii, UniProt Q9ZSJ4); test: as above; format: binding; details: C. reinhardtii pigment mix, Chl a/b 2.5; stoichiometry, not an affinity
T3 construct: gene Lhcb3
T3 sequence (Q9ZSJ4 entry or part of it): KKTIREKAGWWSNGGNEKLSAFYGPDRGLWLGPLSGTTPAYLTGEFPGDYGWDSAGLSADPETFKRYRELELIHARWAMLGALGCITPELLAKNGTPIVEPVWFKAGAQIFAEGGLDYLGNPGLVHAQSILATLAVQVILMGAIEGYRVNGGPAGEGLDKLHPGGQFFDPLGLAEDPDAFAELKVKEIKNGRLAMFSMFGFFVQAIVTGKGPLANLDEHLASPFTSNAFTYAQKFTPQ
Source text: in vitro reconstitution, Ni-affinity and sucrose gradient, HPLC of bound pigments on LHCBM5

LHCBM2 = target: T4, LHCBM2 (Chlamydomonas reinhardtii, UniProt Q93WE0); test: as above; format: binding; details: C. reinhardtii pigment mix, Chl a/b 2.5; stoichiometry, not an affinity
T4 construct: gene LhcII-3
T4 sequence (Q93WE0 entry or part of it): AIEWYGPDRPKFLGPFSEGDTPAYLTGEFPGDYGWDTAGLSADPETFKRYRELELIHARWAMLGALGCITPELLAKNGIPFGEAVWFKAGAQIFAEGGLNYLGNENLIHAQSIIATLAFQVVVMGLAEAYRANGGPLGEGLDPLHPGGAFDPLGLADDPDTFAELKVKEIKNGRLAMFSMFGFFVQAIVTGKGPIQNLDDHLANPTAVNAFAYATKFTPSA
Source text: in vitro reconstitution, Ni-affinity and sucrose gradient, HPLC of bound pigments on LHCBM2

LHCBM6 = target: T5, LHCBM6 (Chlamydomonas reinhardtii, UniProt A8J287); test: as above; format: binding; details: C. reinhardtii pigment mix, Chl a/b 2.5; stoichiometry, not an affinity
T5 construct: gene CHLRE_06g285250v5
T5 sequence (A8J287 entry or part of it): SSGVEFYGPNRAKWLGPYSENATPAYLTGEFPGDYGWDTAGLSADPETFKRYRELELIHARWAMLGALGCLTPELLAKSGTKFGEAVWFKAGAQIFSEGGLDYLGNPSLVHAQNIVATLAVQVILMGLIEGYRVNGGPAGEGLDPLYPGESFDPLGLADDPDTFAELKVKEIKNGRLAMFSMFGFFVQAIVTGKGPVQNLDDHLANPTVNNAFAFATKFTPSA
Source text: in vitro reconstitution, Ni-affinity and sucrose gradient, HPLC of bound pigments on LHCBM6

[5] = target: LHCBM2/7 (type III major light-harvesting complex protein of Chlamydomonas reinhardtii) (Chlamydomonas reinhardtii); test: sucrose density gradient ultracentrifugation + non-denaturing isoelectrofocusing (composition by SDS-PAGE); thylakoids solubilised with alpha-DM; trimeric band (B3) of the sucrose gradient separated by flat-bed ndIEF (ampholites pH 3.5-5, 0.06% beta-DM, 4 °C, 15 h); fractions run again as single bands on sucrose gradients (0.06% beta-DM, 20 mM Hepes pH 7.5); proteins identified by Tricine SDS-PAGE

Compound: CC1=C[C@H](O)CC(C)(C)[C@H]1/C=C/C(C)=C/C=C/C(C)=C/C=C/C=C(C)/C=C/C=C(/C=C/C1=C(C)C[C@@H](O)CC1(C)C)CO [loroxanthin]
in vitro reconstitution, Ni-affinity and sucrose gradient, HPLC of bound pigment (LHCBM1 [1]; internal carotenoid site (L1 proposed)): All LHCBMs contain lutein, loroxanthin and neoxanthin and a small amount of violaxanthin | in vitro reconstitution, Ni-affinity and sucrose gradient, HPLC of bound pigment (LHCBM9 [2]): All LHCBMs contain lutein, loroxanthin and neoxanthin and a small amount of violaxanthin

Compound: CC1=C[C@H](O)CC(C)(C)[C@H]1/C=C/C(C)=C/C=C/C(C)=C/C=C/C=C(C)/C=C/C=C(C)/C=C/C1=C(C)C[C@@H](O)CC1(C)C [lutein]
Lut/mon (LHCBM9 [3]): 1.19±0.06 mol per monomer (normalised to 14 Chls) | Lut/mon (LHCBM1 [4]): 1.32±0.01 mol per monomer (normalised to 14 Chls) | Lut/mon (LHCBM5): 1.38±0.01 mol per monomer (normalised to 14 Chls) | Lut/mon (LHCBM2): 1.43±0.04 mol per monomer (normalised to 14 Chls) | Lut/mon (LHCBM6): 1.25±0.01 mol per monomer (normalised to 14 Chls)

Compound: CC(=C/C=C/C(C)=C/C=C/C=C(C)/C=C/C=C(\C)C=C=C1C(C)(C)C[C@H](O)C[C@@]1(C)O)/C=C/[C@@]12O[C@]1(C)C[C@@H](O)CC2(C)C [neoxanthin]
in vitro reconstitution, Ni-affinity and sucrose gradient, HPLC of bound pigment (LHCBM1 [1]; N1 site suggested): All LHCBMs contain lutein, loroxanthin and neoxanthin and a small amount of violaxanthin

Compound: CC(/C=C/C=C(C)/C=C/[C@@]12O[C@]1(C)C[C@@H](O)CC2(C)C)=C\C=C\C=C(C)\C=C\C=C(C)\C=C\[C@@]12O[C@]1(C)C[C@@H](O)CC2(C)C [violaxanthin]
Vio/mon (LHCBM9 [3]): 0.24±0.01 mol per monomer (normalised to 14 Chls) | Vio/mon (LHCBM1 [4]; V1 site suggested): 0.11±0.01 mol per monomer (normalised to 14 Chls)

stoichiometry N [5]: 3
Compound: LHCBM2/7 (type III major light-harvesting complex protein of Chlamydomonas reinhardtii) (natural protein)
